Where two headings read alike, the source gives them in different places.
Key:
[1] = cited from earlier work; for MTD: clinical
primary DIPG cell lines = assay: Effect on primary DIPG cell lines / primary tumor astrocytes; type: cell-based
Source text: Maternal embryonic leucine zipper kinase (MELK) is a serine/threonine kinase implicated in many cellular processes involved in embryogenesis and oncogenesis. Overexpression of MELK is a common feature of diffuse intrinsic pontine glioma (DIPG) and related to tumor grade.

normal astrocytes = assay: Effect on normal astrocytes; type: cell-based; conditions: 10 nanomolar
[2] = Transport over the blood-brain barrier, brain-to-plasma ratio; type: in vivo, mouse

CCN(CCCOc1ccc2c(Nc3cc(CC(=O)Nc4cccc(F)c4)n[nH]3)ncnc2c1)CCOP(=O)(O)O [AZD1152]
MTB ([1]; clinical evaluation, dependent on the dosing schedule): 200 to 450 mg

C[C@@H](Oc1cc(-c2cnn(C3CCNCC3)c2)cnc1N)c1c(Cl)ccc(F)c1Cl [Crizotinib]
MTD [1]: 250 mg twice a day

Nc1ncn([C@H]2C[C@H](O)[C@@H](CO)O2)c(=O)n1 [Decitabine]
MTD ([1]; over 1-3 days): 1,500-2,000/mg/m^2 over 1-3 days

Cc1cccc(-c2nn3c(c2-c2ccnc4ccc(C(N)=O)cc24)CCC3)n1 [Galunisertib]
MTD ([1]; result in words): Not able to determine MTD due to potential cardiovascular DLT

CC[C@H](Nc1ncnc2[nH]cnc12)c1nc2cccc(F)c2c(=O)n1-c1ccccc1 [Idelalisib]
MTD [1]: Not reached up to 350 mg twice a day

CC(=O)c1cnc2ccc(-c3cc(Cl)c(O)c(Cl)c3)nc2c1NC1CCC(CN(C)C)CC1 (stereo not shown) [OTS167, 1-[6-(3,5-Dichloro-4-hydroxyphenyl)-4-({4-[(dimethylamino)methyl]cyclohexyl}amino)-1,5-naphthyridin-3-yl]ethanone]
Toxicity / apoptosis on primary tumor astrocytes (primary DIPG cell lines; 10 nM, most DIPG tumor cell lines): toxic and induces apoptosis
Cell death in primary DIPG cell lines (primary DIPG cell lines; low nanomolar concentrations): induces cell death
Migration of primary DIPG cell lines (primary DIPG cell lines; low nanomolar concentrations): effectively inhibits migration
Proliferation of primary DIPG cell lines (primary DIPG cell lines; low nanomolar concentrations): reduces proliferation
Apoptosis in non-somatic (normal) cells (normal astrocytes): no apoptosis occurs
Growth of normal astrocytes (normal astrocytes): only slightly slows down the growth
Factor of increase of concentration in brain tissue ([2]; co-administering a P-glycoprotein1 / Abcb1a inhibitor): ≥ 4
Kp ([2]; mouse, brain and plasma, mouse models (wild type), passive transport, read-out: Brain-to-plasma (B/P) ratio): 0.02
Absolute concentration reached in the brain ([2]; with pharmaceutically acceptable toxic adverse effects): about 10 nanomolar

CS(=O)(=O)c1ccc(C(=O)Nc2ccc(Cl)c(-c3ccccn3)c2)c(Cl)c1 [Vismodegib]
MTD [1]: Not reached up to 540 mg/d

Pembrolizumab
MTD [1]: Not reached up to 10 mg/kg q2w
